US6552061B1, “Amino acid derivatives and anti-inflammatory agents” (Ajinomoto Co., Inc., priority 1998, dated 2003)

Tests used:
Type in all cases: cell-based
collagenase = experiment: Test for an Activity of Inhibiting Collagenase Expression (MMP-1 ELISA, UVA-irradiated human dermal fibroblasts); conditions: Fibroblast, light or radiation study, 24 h, read-out: inhibitory rate (%) of collagenase expression; for inhibition at 1 µM: concentration 1 μM; for inhibition at 10 µM: concentration 10 μM; for inhibition at 100 µM: concentration 0.1 mM; for inhibition at 1000 µM: concentration 1 mM; for inhibition at 500 µM: concentration 0.5 mM
Protocol: Test for an Activity of Inhibiting Collagenase Expression
(§1) The test compound was added to human dermal fibroblasts which had become confluent in a culture plate. Eighteen hours later, the culture solution was replaced with a phenol red-free medium. The cells were subjected to UV irradiation (UVA; 20 J/cm^2) using Dermaray M-DMR-80 (supplied by Toshiba Iryo Yohin KK). After 24 hours passed, the culture solution was recovered, and the collagenase concentration in the culture solution was measured using MMP-1α·ELISA System (supplied by Amersham Corp.). The rate of inhibition of collagenase expression on the test compound was calculated using formula (VI).
Rate (%) of inhibition of collagenase expression={1−(B4−B6)/(B5−B6)}×100 (VI)
B4: collagenase concentration in the addition of the test compound
B5: collagenase concentration in the non-addition of the test compound
B6: collagenase concentration when the test compound was not added, nor was UV irradiation conducted

IL-1α = experiment: Test for an Activity of Inhibiting IL-1α Expression (ELISA, UVB-irradiated human epidermal cells); conditions: light or radiation study, 24 h, read-out: inhibitory rate (%) of IL-1α expression; for inhibition at 10 µM: concentration 10 μM; for inhibition at 50 µM: concentration 50 μM; for inhibition at 100 µM: concentration 100 μM
Protocol: Test for an Activity of Inhibiting IL-1α Expression
as §1, with “epidermal cells” for “dermal fibroblasts”, “(UVB: 50 mJ/cm^2)” for “(UVA; 20 J/cm^2)”, “IL-1α” for “collagenase”, “IL-1α·ELISA” for “MMP-1α·ELISA”, “(V).” for “(VI).”
Rate (%) of inhibition of IL-1α expression={1−(B1−B3)/(B2−B3)}×100 (V)
B1: IL-1α concentration in the addition of the test compound
B2: IL-1α concentration in the non-addition of the test compound
B3: IL-1α concentration when the test compound was not added, nor was UV irradiation conducted

NF-κB = experiment: Test for an Activity of Inhibiting NF-κB Activation (gel shift assay, UVB-irradiated human epidermal cells); conditions: light or radiation study, read-out: inhibitory rate (%) of NF-κB activation; for inhibition at 10 µM: concentration 10 μM; for inhibition at 100 µM: concentration 100 μM; for inhibition at 1000 µM: concentration 1 mM; for inhibition at 2000 µM: concentration 2 mM; for inhibition at 50 µM: concentration 50 μM
Protocol: Test for an Activity of Inhibiting NF-κB Activation
(§2) Eighteen hours later, the culture solution was replaced with a phenol red-free medium. The cells were subjected to UV irradiation (UVB: 50 mJ/m^2)using Dermaray M-DMR-80 (supplied by Toshiba Iryo Yohin KK). After from 4 to 5 hours passed, the cells were recovered, and the nucleoproteins were extracted in a usual manner. With respect to the resulting nucleoproteins, NF-κB activated by gel shift assay was detected. The amount of NF-κB was determined by measuring a radioactivity of an NF-κB band using a bio-imaging analyzer BAS 2000 (supplied by Fuji Photo Film). The rate of inhibition of NF-κB activation on the test compound was calculated using formula (III).
Rate (%) of inhibition of NF-κB activation={1−(A1−A3)/(A2−A3)}×100 (III)
A1: radioactivity of an NF-κB band in the addition of the test compound
A2: radioactivity of an NF-κB band in the non-addition of the test compound
A3: radioactivity of an NF-κB band when the test compound was not added, nor was UV irradiation conducted

AP-1 = experiment: Test for an Activity of Inhibiting AP-1 Activation (gel shift assay, UVA-irradiated human dermal fibroblasts); conditions: AP1, light or radiation study, read-out: inhibitory rate (%) of AP-1 activation; for inhibition at 10 µM: concentration 10 μM; for inhibition at 20 µM: concentration 20 μM; for inhibition at 1 µM: concentration 1 μM; for inhibition at 5 µM: concentration 5 μM; for inhibition at 500 µM: concentration 0.5 mM; for inhibition at 1000 µM: concentration 1 mM
Protocol: Test for an Activity of Inhibiting AP-1 Activation
as §2, with “The test compound was added to human dermal fibroblasts which had become confluent in a culture plate. Eighteen” for “Eighteen”, “(UVA: 20 J/cm^2) using” for “(UVB: 50 mJ/m^2)using”, “AP-1” for “NF-κB”, “(IV).” for “(III).”
Rate (%) of inhibition of AP-1 activation={1−(A4−A6)/(A5−A6)}×100 (IV)
A4: radioactivity of an AP-1 band in the addition of the test compound
A5: radioactivity of an AP-1 band in the non-addition of the test compound
A6: radioactivity of an AP-1 band when the test compound was not added, nor was UV irradiation conducted

SMILES: CCCCCCCCCCCCNC(=O)[C@H](C)NCc1ccccc1O [N-(2-hydroxybenzyl)-L-alanine lauryl amide]
- inhibition at 1 µM (collagenase): 57%
- inhibition at 10 µM (IL-1α): 69%
- inhibition at 50 µM (IL-1α): 73%
- inhibition at 10 µM (NF-κB): 53%
- inhibition at 20 µM (NF-κB; concentration 20 μM): 65%
- inhibition at 10 µM (AP-1): 57%
- inhibition at 20 µM (AP-1): 56%

SMILES: CCCCCCCCCCCCOC(=O)[C@H](C)NCc1ccccc1O [N-(2-hydroxybenzyl)-L-alanine lauryl ester]
- inhibition at 10 µM (collagenase): 58%
- inhibition at 10 µM (IL-1α): 23%
- inhibition at 100 µM (IL-1α): 72%
- inhibition at 10 µM (NF-κB): 20%
- inhibition at 100 µM (NF-κB): 81%
- inhibition at 10000 µM (AP-1; concentration 10 mM): 68%

SMILES: CCCCCCCCCCCCCCCCCCNC(=O)[C@H](C)NCc1ccccc1O [N-(2-hydroxybenzyl)-L-alanine stearyl amide]
- inhibition at 1 µM (collagenase): 72%
- inhibition at 5 µM (IL-1α; concentration 5 μM): 30%
- inhibition at 10 µM (IL-1α): 77%
- inhibition at 1 µM (AP-1): 72%
- inhibition at 5 µM (AP-1): 47%

SMILES: CCCCCCCCCCCCCCCCCCOC(=O)[C@H](C)NCc1ccccc1O [N-(2-hydroxybenzyl)-L-alanine stearyl ester]
- inhibition at 1 µM (collagenase): 57%
- inhibition at 1 µM (IL-1α; concentration 1 μM): 25%
- inhibition at 10 µM (IL-1α): 25%
- inhibition at 10 µM (NF-κB): 31%
- inhibition at 1 µM (AP-1): 20%
- inhibition at 5 µM (AP-1): 48%

SMILES: CCCCCCCCCCCCOC(=O)[C@H](CCC(=O)O)NCc1ccccc1O [N-(2-hydroxybenzyl)-L-glutamic acid lauryl ester]
- inhibition at 1 µM (collagenase): 53%
- inhibition at 10 µM (collagenase): 49%
- inhibition at 10 µM (IL-1α): 54%
- inhibition at 100 µM (NF-κB): 45%
- inhibition at 10 µM (AP-1): 33%

SMILES: CCOC(=O)[C@H](Cc1c[nH]cn1)NCc1ccccc1O [N-(2-hydroxybenzyl)-L-histidine ethyl ester]
- inhibition at 100 µM (collagenase): 44%
- inhibition at 1000 µM (collagenase): 51%
- inhibition at 1000 µM (NF-κB): 69%
- inhibition at 2000 µM (NF-κB): 72%
- inhibition at 500 µM (AP-1): 20%
- inhibition at 1000 µM (AP-1): 38%

SMILES: CCCCCCCCCCCCNC(=O)[C@H](CC(C)C)NCc1ccccc1O [N-(2-hydroxybenzyl)-L-leucine lauryl amide]
- inhibition at 1 µM (collagenase): 37%
- inhibition at 10 µM (collagenase): 60%
- inhibition at 20 µM (IL-1α; concentration 20 μM): 27%
- inhibition at 50 µM (IL-1α): 79%
- inhibition at 10 µM (NF-κB): 40%
- inhibition at 50 µM (NF-κB): 89%

SMILES: CCNC(=O)[C@H](Cc1ccccc1)NCc1ccccc1O [N-(2-hydroxybenzyl)-L-phenylalanine ethyl amide]
- inhibition at 100 µM (collagenase): 32%
- inhibition at 500 µM (collagenase): 27%
- inhibition at 500 µM (NF-κB; concentration 0.5 mM): 102%
- inhibition at 1000 µM (NF-κB): 47%
- inhibition at 500 µM (AP-1): 34%
- inhibition at 1000 µM (AP-1): 61%

SMILES: CCCCCCCCCCCCNC(=O)[C@@H]1CCC(=O)N1Cc1ccccc1O [N-(2-hydroxybenzyl)-L-pyroglutamic acid lauryl amide]
- inhibition at 10 µM (collagenase): 23%
- inhibition at 50 µM (collagenase; concentration 50 μM): 52%
- inhibition at 10 µM (IL-1α): 25%
- inhibition at 50 µM (IL-1α): 28%
- inhibition at 50 µM (NF-κB): 75%
- inhibition at 100 µM (NF-κB): 74%
- inhibition at 100 µM (AP-1; concentration 100 μM): 42%

SMILES: CCOC(=O)[C@H](CO)NCc1ccccc1O [N-(2-hydroxybenzyl)-L-serine ethyl ester]
- inhibition at 500 µM (collagenase): 30%
- inhibition at 2000 µM (IL-1α; concentration 2 mM): 44%
- inhibition at 1000 µM (NF-κB): 37%
- inhibition at 2000 µM (NF-κB): 56%
- inhibition at 1000 µM (AP-1): 73%

SMILES: CCCCCCCCCCCCNC(=O)[C@H](Cc1ccc(O)cc1)NCc1ccccc1O [N-(2-hydroxybenzyl)-L-tyrosine lauryl amide]
- inhibition at 1 µM (collagenase): 42%
- inhibition at 10 µM (collagenase): 84%
- inhibition at 10 µM (IL-1α): 56%
- inhibition at 10 µM (NF-κB): 39%
- inhibition at 10 µM (AP-1): 40%
- inhibition at 20 µM (AP-1): 55%

SMILES: CCCCCCCCCCCCOC(=O)[C@H](Cc1ccc(O)cc1)NCc1ccccc1O [N-(2-hydroxybenzyl)-L-tyrosine lauryl ester]
- inhibition at 10 µM (collagenase): 61%
- inhibition at 5 µM (NF-κB; concentration 5 μM): 20%
- inhibition at 10 µM (NF-κB): 43%
- inhibition at 1 µM (AP-1): 19%
- inhibition at 10 µM (AP-1): 45%

SMILES: CC(=O)Oc1ccccc1C(=O)O [aspirin, reference compound]
- inhibition at 1000 µM (collagenase): -197%
- inhibition at 1000 µM (AP-1): -4%
- inhibition at 5000 µM (AP-1; concentration 5 mM): 14%

SMILES: C[C@@H]1C[C@H]2[C@@H]3CCC4=CC(=O)C=C[C@]4(C)[C@@]3(F)[C@@H](O)C[C@]2(C)[C@@]1(O)C(=O)CO [dexamethasone, reference compound]
- inhibition at 1 µM (collagenase): 27%
- inhibition at 10 µM (collagenase): 53%
- inhibition at 10 µM (IL-1α): 48%
- inhibition at 100 µM (IL-1α): 65%
- inhibition at 1 µM (AP-1): 39%
- inhibition at 10 µM (AP-1): 34%
